# Assay results published in patent US12630547B2, “RAS protein degraders, pharmaceutical compositions thereof, and their therapeutic applications” (BioTheryX, Inc., priority 2019, dated 2026).
# What was measured:
# Type in all cases: cell-based
# MOLM-13 cells = assay: Cell viability assay (CELLTITER-GLO), MOLM-13 cells; details: Homo sapiens, MOLM-13, 72 h; Table 2; compound at 10 μM, 3 days; read-out: Effect on MOLM-13 cell viability (% DMSO)
# Procedure, shortened: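 MV-4-11 and MOLM-13 cells in RPMI 1640/10% FBS were seeded at 4,000 cells/well and exposed to compound (10 μM or 1 μM) or DMSO for 3 days at 37 °C, 5% CO2. CellTiter-Glo luminescence gave viability as % DMSO, binned into ranges A (<10%) through D (≥50%).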
# H358 cells = assay: Cell viability assay (CELLTITER-GLO), H358 cells; details: Table 4; 3 days
# Procedure, shortened: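 H358 cells (RPMI 1640, 10% FBS), 4,000 per well, exposed to compound for 3 days at 37 °C, 5% CO2; viability by CellTiter-Glo luminescence. Single-dose viability as % DMSO at 10 or 1 μM, binned A (<10%) to D (≥50%); IC50 binned A (≤1 μM) to D (>10 μM).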
# H23 cells = assay: Cell viability assay (CELLTITER-GLO), H23 cells; details: Table 4; 3 days
# Procedure, shortened: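 H23 cells in RPMI 1640 with 10% FBS, 4,000 cells/well, exposed to compound or DMSO for 3 days at 37° C, 5% CO2. Viability read by CellTiter-Glo luminescence after 10 min. IC50 reported in potency bins.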
compound,measurement,setting,value
"C=CC(=O)N1CCN(c2ncnc3c(F)c(-c4c(F)cccc4OCCCCCCCN4CCC(c5cc6c(cc5F)C(=O)N(C5CCC(=O)NC5=O)C6)CC4)c(Cl)cc23)CC1 (stereo not drawn) [Compound 94, 3-(5-(1-(7-(2-(4-(4-Acryloylpiperazin-1-yl)-6-chloro-8-fluoroquinazolin-7-yl)-3-fluorophenoxy)heptyl)piperidin-4-yl)-6-fluoro-1-oxoisoindolin-2-yl)piperidine-2,6-dione]",viability at 10 µM,MOLM-13 cells,< 10%
same,"Inhibition of H358 cells, IC50 (class)",H358 cells,B′
same,"Inhibition of H23 cells, IC50 (class)",H23 cells,B′
"C=C(Cl)C(=O)N1CCN(c2nc(=O)n(-c3ccc(CCCCCCCN4CCC(c5cc(F)cc6c5CN(C5CCC(=O)NC5=O)C6=O)CC4)cc3C(C)C)c3nc(-c4c(O)cccc4F)c(F)cc23)[C@@H](C)C1 (stereo partly drawn) [Compound 126, 3-(4-(1-(7-(4-(4-((S)-4-(2-Chloroacryloyl)-2-methylpiperazin-1-yl)-6-fluoro-7-(2-fluoro-6-hydroxyphenyl)-2-oxopyrido[2,3-d]pyrimidin-1(2H)-yl)-3-isopropylphenyl)heptyl)piperidin-4-yl)-6-fluoro-1-oxoisoindolin-2-yl)piperidine-2,6-dione]",viability at 10 µM,MOLM-13 cells,< 10%
same,"Inhibition of H358 cells, IC50 (class)",H358 cells,B′
same,"Inhibition of H23 cells, IC50 (class)",H23 cells,B′
"CCC(=O)N1CCN(c2ncnc3c(F)c(-c4c(F)cccc4OCCC4CCC(CCN5CCC(c6cc(F)cc7c6CN(C6CCC(=O)NC6=O)C7=O)CC5)CC4)c(Cl)cc23)CC1 (stereo not drawn) [Compound 84, 3-(4-(1-(2-(4-(2-(2-(6-Chloro-8-fluoro-4-(4-propionylpiperazin-1-yl)quinazolin-7-yl)-3-fluorophenoxy)ethyl)cyclohexyl)ethyl)piperidin-4-yl)-6-fluoro-1-oxoisoindolin-2-yl)piperidine-2,6-dione]",viability at 10 µM,MOLM-13 cells,< 10%
same,"Inhibition of H358 cells, IC50 (class)",H358 cells,B′
same,"Inhibition of H23 cells, IC50 (class)",H23 cells,B′
"C=C(Cl)C(=O)N1CCN(c2ncnc3c(F)c(-c4c(F)cccc4OCCC4CCC(CCN5CCC(c6cc(F)cc7c6CN(C6CCC(=O)NC6=O)C7=O)CC5)CC4)c(Cl)cc23)CC1 (stereo not drawn) [Compound 110, 3-(4-(1-(2-(4-(2-(2-(6-Chloro-4-(4-(2-chloroacryloyl)piperazin-1-yl)-8-fluoroquinazolin-7-yl)-3-fluorophenoxy)ethyl)cyclohexyl)ethyl)piperidin-4-yl)-6-fluoro-1-oxoisoindolin-2-yl)piperidine-2,6-dione]",viability at 10 µM,MOLM-13 cells,< 10%
same,"Inhibition of H358 cells, IC50 (class)",H358 cells,B′
same,"Inhibition of H23 cells, IC50 (class)",H23 cells,A′
"CC(C)/C=C(\C#N)C(=O)N1CCN(c2ncnc3c(F)c(-c4c(F)cccc4OCCCCCCCN4CCC(c5cc(F)cc6c5CN(C5CCC(=O)NC5=O)C6=O)CC4)c(Cl)cc23)CC1 (stereo not drawn) [Compound 80, (E)-2-(4-(6-Chloro-7-(2-((7-(4-(2-(2,6-dioxopiperidin-3-yl)-6-fluoro-1-oxoisoindolin-4-yl)piperidin-1-yl)heptyl)oxy)-6-fluorophenyl)-8-fluoroquinazolin-4-yl)piperazine-1-carbonyl)-4-methylpent-2-enenitrile]",viability at 10 µM,MOLM-13 cells,< 10%
same,"Inhibition of H358 cells, IC50 (class)",H358 cells,B′
same,"Inhibition of H23 cells, IC50 (class)",H23 cells,B′
"CCC(=O)N1CCN(c2ncnc3c(F)c(-c4c(F)cccc4OCCCCCCCCCCC(=O)N[C@H](C(=O)N4C[C@H](O)C[C@H]4C(=O)NCc4ccc(-c5scnc5C)cc4)C(C)(C)C)c(Cl)cc23)CC1 [Compound 77, (2S,4R)-1-((2S)-2-(11-(2-(6-Chloro-8-fluoro-4-(4-propionylpiperazin-1-yl)quinazolin-7-yl)-3-fluorophenoxy)undecanamido)-3,3-dimethylbutanoyl)-4-hydroxy-N-(4-(4-methylthiazol-5-yl)benzyl)pyrrolidine-2-carboxamide]",viability at 10 µM,MOLM-13 cells,≥ 50%
same,"Inhibition of H358 cells, IC50 (class)",H358 cells,C′
same,"Inhibition of H23 cells, IC50 (class)",H23 cells,D′
"C=CC(=O)N1CCN(c2nc(OC[C@@H]3CCCN3C)nc3c(F)c(-c4c(F)cccc4OCCCCCCCN4CCC(c5cc(F)cc6c5CN(C5CCC(=O)NC5=O)C6=O)CC4)c(Cl)cc23)CC1 (stereo partly drawn) [Compound 88, 3-(4-(1-(7-(2-(4-(4-Acryloylpiperazin-1-yl)-6-chloro-8-fluoro-2-(((S)-1-methylpyrrolidin-2-yl)methoxy)quinazolin-7-yl)-3-fluorophenoxy)heptyl)piperidin-4-yl)-6-fluoro-1-oxoisoindolin-2-yl)piperidine-2,6-dione]",viability at 10 µM,MOLM-13 cells,< 10%
same,"Inhibition of H358 cells, IC50 (class)",H358 cells,A′
same,"Inhibition of H23 cells, IC50 (class)",H23 cells,B′
"C=C(Cl)C(=O)N1CCN(c2ncnc3c(F)c(-c4c(F)cccc4OCCCN4CCC(c5cc(F)cc6c5CN(C5CCC(=O)NC5=O)C6=O)CC4)c(Cl)cc23)CC1 (stereo not drawn) [Compound 121, 3-(4-(1-(3-(2-(6-Chloro-4-(4-(2-chloroacryloyl)piperazin-1-yl)-8-fluoroquinazolin-7-yl)-3-fluorophenoxy)propyl)piperidin-4-yl)-6-fluoro-1-oxoisoindolin-2-yl)piperidine-2,6-dione]",viability at 10 µM,MOLM-13 cells,< 10%
same,"Inhibition of H358 cells, IC50 (class)",H358 cells,B′
same,"Inhibition of H23 cells, IC50 (class)",H23 cells,B′
"C=C(F)C(=O)N1CCN(c2ncnc3c(F)c(-c4c(F)cccc4OCCCCCCCN4CCC(c5cc(F)cc6c5CN(C5CCC(=O)NC5=O)C6=O)CC4)c(Cl)cc23)CC1 (stereo not drawn) [Compound 82, 3-(4-(1-(7-(2-(6-Chloro-8-fluoro-4-(4-(2-fluoroacryloyl)piperazin-1-yl)quinazolin-7-yl)-3-fluorophenoxy)heptyl)piperidin-4-yl)-6-fluoro-1-oxoisoindolin-2-yl)piperidine-2,6-dione]",viability at 10 µM,MOLM-13 cells,< 10%
same,"Inhibition of H358 cells, IC50 (class)",H358 cells,B′
same,"Inhibition of H23 cells, IC50 (class)",H23 cells,B′
"C=C(Cl)C(=O)N1CCN(c2ncnc3c(F)c(-c4c(F)cccc4OCCC4CCC(CCN5CCC(c6cc(F)cc7c6CN(C6CCC(=O)NC6=O)C7=O)CC5)C4)c(Cl)cc23)CC1 (stereo not drawn) [Compound 130, 3-(4-(1-(2-(3-(2-(2-(6-Chloro-4-(4-(2-chloroacryloyl)piperazin-1-yl)-8-fluoroquinazolin-7-yl)-3-fluorophenoxy)ethyl)cyclopentyl)ethyl)piperidin-4-yl)-6-fluoro-1-oxoisoindolin-2-yl)piperidine-2,6-dione]",viability at 10 µM,MOLM-13 cells,< 10%
same,"Inhibition of H358 cells, IC50 (class)",H358 cells,B′
same,"Inhibition of H23 cells, IC50 (class)",H23 cells,A′
"CCC(=O)N1C[C@@H]2C(=O)N(C)c3cnc4c(F)c(-c5c(F)cccc5OCCCCCCCN5CCC(c6cc(F)cc7c6CN(C6CCC(=O)NC6=O)C7=O)CC5)c(Cl)cc4c3N2C[C@H]1C (stereo partly drawn) [Compound 65, 3-(4-(1-(7-(2-((2R,4aR)-11-Chloro-9-fluoro-2,6-dimethyl-5-oxo-3-propionyl-2,3,4,4a,5,6-hexahydro-1H-pyrazino[11′,2′:4,5]pyrazino[2,3-c]quinolin-10-yl)-3-fluorophenoxy)heptyl)piperidin-4-yl)-6-fluoro-1-oxoisoindolin-2-yl)piperidine-2,6-dione]",viability at 10 µM,MOLM-13 cells,< 10%
same,"Inhibition of H358 cells, IC50 (class)",H358 cells,B′
same,"Inhibition of H23 cells, IC50 (class)",H23 cells,B′
"CCC(=O)N1CCN(c2nc(=O)n(-c3ccccc3C(C)C)c3nc(-c4c(F)cccc4OCCCCCCCN4CCC(c5cc(F)cc6c5CN(C5CCC(=O)NC5=O)C6=O)CC4)c(F)cc23)[C@@H](C)C1 (stereo partly drawn) [Compound 73, 3-(6-Fluoro-4-(1-(7-(3-fluoro-2-(6-fluoro-1-(2-isopropylphenyl)-4-((S)-2-methyl-4-propionylpiperazin-1-yl)-2-oxo-1,2-dihydropyrido[2,3-d]pyrimidin-7-yl)phenoxy)heptyl)piperidin-4-yl)-1-oxoisoindolin-2-yl)piperidine-2,6-dione]",viability at 10 µM,MOLM-13 cells,10 to 25%
same,"Inhibition of H358 cells, IC50 (class)",H358 cells,B′
same,"Inhibition of H23 cells, IC50 (class)",H23 cells,B′
"CCC(=O)N1CCN(c2ncnc3c(F)c(-c4cc(OCCCCCCCN5CCC(c6cc(F)cc7c6CN(C6CCC(=O)NC6=O)C7=O)CC5)ccc4F)c(Cl)cc23)CC1 (stereo not drawn) [Compound 91, 3-(4-(1-(7-(3-(6-Chloro-8-fluoro-4-(4-propionylpiperazin-1-yl)quinazolin-7-yl)-4-fluorophenoxy)heptyl)piperidin-4-yl)-6-fluoro-1-oxoisoindolin-2-yl)piperidine-2,6-dione]",viability at 10 µM,MOLM-13 cells,< 10%
same,"Inhibition of H358 cells, IC50 (class)",H358 cells,B′
same,"Inhibition of H23 cells, IC50 (class)",H23 cells,B′
"C/C=C(\Cl)C(=O)N1CCN(c2ncnc3c(F)c(-c4c(F)cccc4OCCCCCCCN4CCC(c5cc(F)cc6c5CN(C5CCC(=O)NC5=O)C6=O)CC4)c(Cl)cc23)CC1 (stereo not drawn) [Compound 96, (Z)-3-(4-(1-(7-(2-(6-Chloro-4-(4-(2-chlorobut-2-enoyl)piperazin-1-yl)-8-fluoroquinazolin-7-yl)-3-fluorophenoxy)heptyl)piperidin-4-yl)-6-fluoro-1-oxoisoindolin-2-yl)piperidine-2,6-dione]",viability at 10 µM,MOLM-13 cells,< 10%
same,"Inhibition of H358 cells, IC50 (class)",H358 cells,B′
same,"Inhibition of H23 cells, IC50 (class)",H23 cells,B′
"C=CC(=O)N1C[C@@H]2C(=O)N(CCCCCCCN3CCC(c4cc(F)cc5c4CN(C4CCC(=O)NC4=O)C5=O)CC3)c3cnc4c(F)c(-c5c(O)cccc5F)c(Cl)cc4c3N2C[C@H]1C (stereo partly drawn) [Compound 66, 3-(4-(1-(7-((2R,4aR)-3-Acryloyl-11-chloro-9-fluoro-10-(2-fluoro-6-hydroxyphenyl)-2-methyl-5-oxo-1,2,3,4,4a,5-hexahydro-6H-pyrazino[1′,2′:4,5]pyrazino[2,3-c]quinolin-6-yl)heptyl)piperidin-4-yl)-6-fluoro-1-oxoisoindolin-2-yl)piperidine-2,6-dione]",viability at 10 µM,MOLM-13 cells,< 10%
same,"Inhibition of H358 cells, IC50 (class)",H358 cells,A′
same,"Inhibition of H23 cells, IC50 (class)",H23 cells,B′
